Laboratory results from US20220089575A1, “FARNESOID X RECEPTOR AGONISTS AND USES THEREOF” (Metacrine, Inc., priority 2017, published 2022).
pEC50: −log10 of the molar value.

biological target: T1, hFXR (Homo sapiens, UniProt Q96RI1); assay: In Vitro FXR Assay (TK): TK-ECRE-luc reporter in transfected CV-1 cells; format: cell-based; settings: 18 hrs, luminescence, maximum efficacy of <25% of the Fexarmine control classified as '+'
T1 construct: expressed in transfected cells; host or cells: CV-1 cells
T1 sequence (Q96RI1 1-486): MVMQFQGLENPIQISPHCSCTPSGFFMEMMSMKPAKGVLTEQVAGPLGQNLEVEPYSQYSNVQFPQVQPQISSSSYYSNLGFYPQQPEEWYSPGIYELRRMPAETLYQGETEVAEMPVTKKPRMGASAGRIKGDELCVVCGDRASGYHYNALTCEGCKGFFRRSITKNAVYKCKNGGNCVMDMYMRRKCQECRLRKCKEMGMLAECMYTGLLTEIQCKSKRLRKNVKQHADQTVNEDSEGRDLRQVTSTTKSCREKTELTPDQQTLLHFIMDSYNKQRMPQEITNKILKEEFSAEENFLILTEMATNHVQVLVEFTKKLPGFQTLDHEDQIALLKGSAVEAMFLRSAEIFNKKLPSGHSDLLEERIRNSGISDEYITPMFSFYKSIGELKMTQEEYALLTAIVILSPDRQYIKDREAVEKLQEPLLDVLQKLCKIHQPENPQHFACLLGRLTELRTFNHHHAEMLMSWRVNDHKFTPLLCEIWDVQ
T1 sequence (P19793 1-462 partner): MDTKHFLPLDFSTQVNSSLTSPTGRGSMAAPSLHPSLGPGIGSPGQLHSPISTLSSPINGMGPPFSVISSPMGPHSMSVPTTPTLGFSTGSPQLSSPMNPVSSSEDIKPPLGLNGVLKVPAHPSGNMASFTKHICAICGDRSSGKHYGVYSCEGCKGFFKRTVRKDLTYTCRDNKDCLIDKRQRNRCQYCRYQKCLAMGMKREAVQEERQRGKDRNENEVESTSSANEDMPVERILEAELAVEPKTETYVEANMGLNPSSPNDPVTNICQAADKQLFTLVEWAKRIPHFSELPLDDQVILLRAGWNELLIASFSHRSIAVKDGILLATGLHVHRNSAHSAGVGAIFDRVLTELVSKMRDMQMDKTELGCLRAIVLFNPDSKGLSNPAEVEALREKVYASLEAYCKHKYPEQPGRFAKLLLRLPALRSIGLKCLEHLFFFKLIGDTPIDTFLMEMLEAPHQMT
In short: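 CV-1, transient co-transfection: hFXR + hRXR + TK-ECRE-luc + pCMX-YFP; charcoal-stripped serum. 18 h post-transfection, DMSO serial dilutions of cpd added; 18 h incubation; lysis, luminescence.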

Row | pEC50 | SMILES
1 | ≥ 6.60 | CNC(=O)O[C@H]1CC[C@H](C(=O)N(C[C@H]2CC[C@H](c3ccc(OC)c(C)n3)CC2)c2cc(-c3cnc(C4CC4)s3)ccn2)CC1 [Compound 5.03, trans-4-((4-(2-Cyclopropylthiazol-5-yl)pyridin-2-yl)((trans-4-(5-methoxy-6-methylpyridin-2-yl)cyclohexyl)methyl)carbamoyl)cyclohexyl methylcarbamate]
2 | ≥ 6.60 | COc1ccc([C@H]2CC[C@H](CN(c3cccc(-c4cnn(C(C)C)c4)c3)C(=O)[C@H]3CC[C@H](OC(=O)NCCCO)CC3)CC2)nc1C [Compound 6.16, trans-4-((3-(1-Isopropyl-1H-pyrazol-4-yl)phenyl)((trans-4-(5-methoxy-6-methylpyridin-2-yl)cyclohexyl)methyl)carbamoyl)cyclohexyl (3-hydroxypropyl)carbamate]
3 | ≥ 6.60 | COc1ccc([C@H]2CC[C@H](CN(c3cccc(-c4coc(C5CC5)n4)c3)C(=O)[C@H]3CC[C@H](OC(=O)N4CC(O)C4)CC3)CC2)cc1C#N [Compound 7.68, trans-4-(((trans-4-(3-Cyano-4-methoxyphenyl)cyclohexyl)methyl)(3-(2-cyclopropyloxazol-4-yl)phenyl)carbamoyl)cyclohexyl 3-hydroxyazetidine-1-carboxylate]
4 | ≥ 6.60 | COc1ccc([C@H]2CC[C@H](CN(c3cc(-c4cnn(C(C)C)c4)ccn3)C(=O)[C@H]3CC[C@H](OC(=O)N(C)C)CC3)CC2)cc1C#N [Compound 7.45, trans-4-(((trans-4-(3-Cyano-4-methoxyphenyl)cyclohexyl)methyl)(4-(1-isopropyl-1H-pyrazol-4-yl)pyridin-2-yl)carbamoyl)cyclohexyl dimethylcarbamate]
5 | ≥ 6.60 | COc1ccc([C@H]2CC[C@H](CN(c3cccc(-c4cnc(C5CC5)s4)c3)C(=O)[C@H]3CC[C@H](NC(=O)COCCO)CC3)CC2)cc1C [Compound 32.02, trans-N-(3-(2-Cyclopropylthiazol-5-yl)phenyl)-4-(2-(2-hydroxyethoxy)acetamido)-N-((trans-4-(4-methoxy-3-methylphenyl)cyclohexyl)methyl) cyclohexanecarboxamide]
6 | ≥ 6.60 | COc1ccc([C@H]2CC[C@H](CN(c3cccc(-c4cnn(C(C)C)c4)c3)C(=O)[C@H]3CC[C@H](OC(=O)N4CC(O)C4)CC3)CC2)cc1C [Compound 7.14, trans-4-((3-(1-Isopropyl-1H-pyrazol-4-yl)phenyl)((trans-4-(4-methoxy-3-methylphenyl)cyclohexyl)methyl)carbamoyl)cyclohexyl 3-hydroxyazetidine-1-carboxylate]
7 | ≥ 6.60 | CNC(=O)O[C@H]1CC[C@H](C(=O)N(C[C@H]2CC[C@H](c3ccc(OC)c(C)c3)CC2)c2cccc(C#Cc3nccs3)c2)CC1 [Compound 2.04, trans-4-(((trans-4-(4-Methoxy-3-methylphenyl)cyclohexyl)methyl)(3-(thiazol-2-ylethynyl)phenyl)carbamoyl)cyclohexyl methylcarbamate]
8 | ≥ 6.60 | COc1ncc(-c2cccc(N(C[C@H]3CC[C@H](c4ccc(OC)c(C)c4)CC3)C(=O)[C@H]3CC[C@H](OC(=O)N(C)C)CC3)c2)s1 [Compound 13, trans-4-(((trans-4-(4-Methoxy-3-methylphenyl)cyclohexyl)methyl)(3-(2-methoxythiazol-5-yl)phenyl)carbamoyl)cyclohexyl dimethylcarbamate]
9 | ≥ 6.60 | COc1ccc([C@H]2CC[C@H](CN(c3cccc(-c4cnn(C5CC5)c4)c3)C(=O)[C@H]3CC[C@H](OC(=O)NC4CN(C(=O)OC(C)(C)C)C4)CC3)CC2)cc1C [Compound 4.17, tert-Butyl 3-((((trans-4-((3-(1-cyclopropyl-1H-pyrazol-4-yl)phenyl)((trans-4-(4-methoxy-3-methylphenyl)cyclohexyl)methyl)carbamoyl)cyclohexyl)oxy)carbonyl)amino)azetidine-1-carboxylate]

The remaining lines, values behind:

Row | SMILES | pEC50
10 | COc1ccc([C@H]2CC[C@H](CN(c3cc(-c4coc(C5CC5)n4)ccn3)C(=O)[C@H]3CC[C@H](OC(N)=O)CC3)CC2)nc1C [Compound 5.48, trans-4-((4-(2-Cyclopropyloxazol-4-yl)pyridine-2-yl)((trans-4-(5-methoxy-6-methylpyridin-2-yl)cyclohexyl)methyl)carbamoyl)cyclohexyl carbamate] | ≥ 6.60
11 | COc1ccc([C@H]2CC[C@H](CN(c3cc(-c4coc(C5CC5)n4)ccn3)C(=O)[C@H]3CC[C@H](OC(=O)N4CCOC(C)(C)C4)CC3)CC2)nc1C [Compound 6.83, trans-4-((4-(2-Cyclopropyloxazol-4-yl)pyridin-2-yl)((trans-4-(5-methoxy-6-methylpyridin-2-yl)cyclohexyl)methyl)carbamoyl)cyclohexyl 2,2-dimethylmorpholine-4-carboxylate] | ≥ 6.60
12 | COc1ccc([C@H]2CC[C@H](CN(c3cccc(-c4cnn(C5CC5)c4)c3)C(=O)[C@H]3CC[C@H](C(=O)O)CC3)CC2)nc1C [Compound 17.18, trans-4-((3-(1-Cyclopropyl-1H-pyrazol-4-yl)phenyl)((trans-4-(5-methoxy-6-methylpyridin-2-yl)cyclohexyl)methyl)carbamoyl) cyclohexanecarboxylic acid] | 6.00 to 6.60
13 | CCNC(=O)O[C@H]1CC[C@H](C(=O)N(C[C@H]2CC[C@H](c3ccc(OC)c(C)n3)CC2)c2cc(-c3coc(C4CC4)n3)ccn2)CC1 [Compound 5.47, trans-4-((4-(2-Cyclopropyloxazol-4-yl)pyridine-2-yl)((trans-4-(5-methoxy-6-methylpyridin-2-yl)cyclohexyl)methyl)carbamoyl)cyclohexyl ethylcarbamate] | ≥ 6.60
14 | CNC(=O)O[C@H]1CC[C@H](C(=O)N(C[C@H]2CC[C@H](c3ccc(OC)c(C#N)n3)CC2)c2cc(-c3cnn(C4CC4)c3)ccn2)CC1 [Compound 5.27, trans-4-(((trans-4-(6-Cyano-5-methoxypyridin-2-yl)cyclohexyl)methyl)(4-(1-cyclopropyl-1H-pyrazol-4-yl)pyridin-2-yl)carbamoyl)cyclohexyl methylcarbamate] | ≥ 6.60
15 | CNC(=O)O[C@H]1CC[C@H](C(=O)N(CC23CCC(c4ccc(OC)c(C)c4)(CC2)CC3)c2cccc(C#Cc3nccs3)c2)CC1 [Compound 2.05, 4-(((4-(4-Methoxy-3-methylphenyl)bicyclo[2.2.2]octan-1-yl)methyl)(3-(thiazol-2-ylethynyl)phenyl)carbamoyl)cyclohexyl trans-methylcarbamate] | ≥ 6.60
16 | COc1ccc([C@H]2CC[C@H](CN(c3cc(-c4coc(C5CC5)n4)ccn3)C(=O)[C@H]3CC[C@H](OC(=O)N[C@@H](C)CO)CC3)CC2)nc1C [Compound 6.93, trans-4-((4-(2-Cyclopropyloxazol-4-yl)pyridin-2-yl)((trans-4-(5-methoxy-6-methylpyridin-2-yl)cyclohexyl)methyl)carbamoyl)cyclohexyl ((S)-1-hydroxypropan-2-yl)carbamate] | ≥ 6.60
17 | COc1ccc([C@H]2CC[C@H](CN(c3cc(-c4coc(C5CC5)n4)ccn3)C(=O)[C@H]3CC[C@H](OC(=O)N4CC(CS(C)(=O)=O)C4)CC3)CC2)nc1C [Compound 7.101, trans-4-((4-(2-Cyclopropyloxazol-4-yl)pyridine-2-yl)((trans-4-(5-methoxy-6-methylpyridin-2-yl)cyclohexyl)methyl)carbamoyl)cyclohexyl 3-((methylsulfonyl)methyl)azetidine-1-carboxylate] | ≥ 6.60
18 | COc1ccc([C@H]2CC[C@H](CN(c3cccc(-c4coc(C(C)C)n4)c3)C(=O)[C@H]3CC[C@H](OC(=O)N4CC(O)C4)CC3)CC2)nc1C#N [Compound 7.74, trans-4-(((trans-4-(6-Cyano-5-methoxypyridin-2-yl)cyclohexyl)methyl)(3-(2-isopropyloxazol-4-yl)phenyl)carbamoyl)cyclohexyl 3-hydroxyazetidine-1-carboxylate] | ≥ 6.60
19 | COc1ccc([C@H]2CC[C@H](CN(c3cc(-c4coc(C5CC5)n4)ccn3)C(=O)[C@H]3CC[C@H](OC(=O)N4CCN(C)CC4)CC3)CC2)nc1C [Compound 6.65, trans-4-((4-(2-Cyclopropyloxazol-4-yl)pyridine-2-yl)((trans-4-(5-methoxy-6-methylpyridin-2-yl)cyclohexyl)methyl)carbamoyl)cyclohexyl 4-methylpiperazine-1-carboxylate] | ≥ 6.60
20 | COc1ccc([C@H]2CC[C@H](CN(c3cc(-c4coc(C5CC5)n4)ccn3)C(=O)[C@H]3CC[C@H](OC(=O)N(C)C)CC3)CC2)nc1C [Compound 7.78, trans-4-((4-(2-Cyclopropyloxazol-4-yl)pyridine-2-yl)((trans-4-(5-methoxy-6-methylpyridin-2-yl)cyclohexyl)methyl)carbamoyl)cyclohexyl dimethylcarbamate] | ≥ 6.60
